For assay [1], the system named is soybean cyst nematode (Heterodera grycines). Kind of assay: Nematocidal test on the soybean cyst nematode, treated soil with soybean. Type of assay: in vivo. More on the design: key: A: no cysts.; B: cysts are present but their number is definitely smaller than that for untreated plot.; C: cysts are present in an equivalent number to or a larger number than that for untreated plot. The conditions noted are these: 7.5 mg wettable powder (1.5 mg active ingredient per kg soil); 40 days after seeding. As to the method: Nematocidal Test on the Soybean Cyst Nematode (Heterodera grycines)
A wettable powder comprising each compound listed in Table 1 as an active ingredient was prepared as directed in Preparation Example 4, and 75 mg and 7.5 mg were weighed out so that the active ingredient content would be 15 mg and 1.5 mg per kg soil; these agents were mixed in soil (1000 g) contaminated with soybean cyst nematodes in a plastic bag. The treated soil was filled in pots, soybean seeds were sown, and the pots were placed in a glass greenhouse. Forty days after the seeding, the soil on the roots was put down, the number of cysts was examined, and the effect was determined according to the rating criteria shown below.
• A: no cysts. • B: cysts are present but their number is definitely smaller than that for untreated plot. • C: cysts are present in an equivalent number to or a larger number than that for untreated plot.

The subject of assay [2] is southern root-knot nematode (Meloidogyne incognita). Description: Nematocidal test on the southern root-knot nematode, pot-grown melon seedlings. Type of assay: in vivo. On the set-up: key: A: no root knots.; B: root knots are present but their number is definitely smaller than that for untreated plot.; C: root knots are present in an equivalent number to or a larger number than that for untreated plot. The conditions noted are these: 30 ppm emulsion dilution, 1 ml injected at foot of melon seedlings; 8 days after inoculation. As to the method: Nematocidal Test on the Southern Root-Knot Nematode (Meloidogyne incognita)
An emulsion comprising each compound listed in Table 1 as an active ingredient was prepared as directed in Preparation Example 1, and diluted to obtain active ingredient concentrations of 300 ppm and 30 ppm. Each of these dilutions (1 ml) was applied to the foots of pot-grown melon seedlings by injection; 1 day after application of the dilution, an aqueous suspension of southern root-knot nematodes (about 500 nematodes/ml) was inoculated (soil injection), to a treated plot and an untreated plot and the pots were placed in a 25° C. greenhouse. Eight days after the inoculation, the roots were washed with water and examined for the number of root knots, and the effects were determined according to the following rating criteria.
• A: no root knots. • B: root knots are present but their number is definitely smaller than that for untreated plot. • C: root knots are present in an equivalent number to or a larger number than that for untreated plot.

The structures appear in SMILES notation.

As to `O=C(NCCc1ncc(C(F)(F)F)cc1Cl)c1ccccc1C(F)(F)F` [Compound 7, N-[2-(3-chloro-5-trifluoromethylpyridin-2-yl)ethyl]-2-trifluoromethylbenzamide], the “rating (number of cysts)” value in assay [1] is “A”. Besides, the “rating (number of root knots)” value in assay [2] is “A”.
